This is an account of results in patent publication US20160326142A1, “PYRAZOLE CARBOXAMIDE COMPOUNDS, COMPOSITIONS AND METHODS OF USE” (Genentech, Inc., priority 2012, published 2016).

SMILES strings stand for the structures.

The experiment concerns the target T1, ITK (Homo sapiens, UniProt Q08881).
T1 construct: purchased Invitrogen PV3875
T1 sequence (Q08881 1-620): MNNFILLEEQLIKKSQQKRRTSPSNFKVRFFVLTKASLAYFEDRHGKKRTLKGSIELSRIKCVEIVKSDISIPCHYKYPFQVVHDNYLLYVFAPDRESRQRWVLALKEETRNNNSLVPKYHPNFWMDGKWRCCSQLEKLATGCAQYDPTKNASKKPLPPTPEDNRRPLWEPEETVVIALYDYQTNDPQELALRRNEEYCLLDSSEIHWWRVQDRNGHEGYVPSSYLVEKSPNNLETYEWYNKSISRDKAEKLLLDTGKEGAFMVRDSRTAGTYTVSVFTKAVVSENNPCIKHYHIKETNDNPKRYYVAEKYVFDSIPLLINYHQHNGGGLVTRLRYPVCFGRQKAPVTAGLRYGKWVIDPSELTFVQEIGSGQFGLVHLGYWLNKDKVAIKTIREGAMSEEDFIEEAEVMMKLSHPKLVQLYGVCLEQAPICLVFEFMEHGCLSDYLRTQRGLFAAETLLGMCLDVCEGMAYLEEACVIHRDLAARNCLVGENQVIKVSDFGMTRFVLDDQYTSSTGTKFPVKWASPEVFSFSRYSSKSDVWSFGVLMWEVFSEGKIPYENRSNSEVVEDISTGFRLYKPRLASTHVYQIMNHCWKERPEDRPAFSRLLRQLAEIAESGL
Put plainly: ITK enzyme assay (Caliper or LCMS peptide phosphorylation). To be noted: purified ITK (Invitrogen PV3875), 20 μM ATP, Ki by Morrison's quadratic equation. Type of experiment: biochemical. The essentials: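 Ki values come from Morrison quadratic fits of activity versus inhibitor concentration, adjusted for ATP-competitive inhibition against ATP/Km,app. Substrate and phosphopeptide from purified ITK reactions were resolved either microfluidically (Caliper, EDTA stop) or by LC-MS MRM (TCA stop).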
For the compound `Cn1cc(C(c2ccccc2)n2cc(NC(=O)c3n[nH]c4c3C3CC3CC4)cn2)cn1` (single isomer, unassigned) [Example 35c, N-(1-((1-methyl-1H-pyrazol-4-yl)(phenyl)methyl)-1H-pyrazol-4-yl)-3,4,5,5a,6,6a-hexahydro cyclopropa[e]indazole-1-carboxamide], the Ki (as a rule, a dissociation constant, usually derived from enzyme kinetics or from competition with a known ligand) was 220 nM.
For the compound `CC1(C)CCc2c(C(=O)Nc3cnn(Cc4ccnc(N)c4)c3)n[nH]c2C1` [Example 111, N-(1-((2-aminopyridin-4-yl)methyl)-1H-pyrazol-4-yl)-6,6-dimethyl-4,5,6,7-tetrahydro-1H-indazole-3-carboxamide], the Ki came out at 8 nM. This Ki is about 28-fold lower than that of the compound before.
`O=C(Nc1cnn(Cc2ccccc2)c1)c1n[nH]c2c1C1CC(C2)C1` [Example 31, N-(1-benzyl-1H-pyrazol-4-yl)-4,5,6,7-tetrahydro-1H-4,6-methanoindazole-3-carboxamide] displayed a Ki of 260 nM.
As to `CC1(C)CCc2c(C(=O)Nc3cnn(C(c4ccccc4)C4CS(=O)(=O)C4)c3)n[nH]c2C1` (single isomer, unassigned) [Example 89a], the affinity, expressed as Ki, was 0.2 nM.
Compound `CC1(C)CCc2c(C(=O)Nc3cnn(C(c4ccccc4)C4CCN(CCF)CC4)c3)n[nH]c2C1` (single isomer, unassigned) [Example 63a, N-(1-((1-(2-fluoroethyl)piperidin-4-yl)(phenyl)methyl)-1H-pyrazol-4-yl)-6,6-dimethyl-4,5,6,7-tetrahydro-1H-indazole-3-carboxamide] had a Ki of 0.1 nM.
As to `CC1(C)Cc2[nH]nc(C(=O)Nc3cnn(Cc4ccccc4)c3)c2CC1C#N` (single isomer, unassigned) [Example 90a, N-(1-benzyl-1H-pyrazol-4-yl)-5-cyano-6,6-dimethyl-4,5,6,7-tetrahydro-1H-indazole-3-carboxamide], the affinity corresponds to a Ki of 570 nM. This Ki lies about 5700-fold higher than the previous one.
The compound `CC1(C)CCc2c(C(=O)Nc3cnn(C(c4ccccc4)C(C)(C)O)c3)n[nH]c2C1` (single isomer, unassigned) [Example 55a, N-(1-(2-hydroxy-2-methyl-1-phenylpropyl)-1H-pyrazol-4-yl)-6,6-dimethyl-4,5,6,7-tetrahydro-1H-indazole-3-carboxamide] yielded a Ki of 5 nM.
On to `CC12Cc3[nH]nc(C(=O)Nc4cnn(C(c5ccccc5)C5CCCCS5(=O)=O)c4)c3CC1C2` (single isomer, unassigned) [Example 143b, N-(1-((1,1-dioxidotetrahydro-2H-thiopyran-2-yl)(phenyl)methyl)-1H-pyrazol-4-yl)-5a-methyl-1,4,4a,5,5a,6-hexahydrocyclopropa[f]indazole-3-carboxamide], for which the Ki was determined as 2 nM.
For `CC1(C)CCc2c(C(=O)Nc3cnn(C(CN4CCOCC4=O)c4ccccc4)c3)n[nH]c2C1` (single isomer, unassigned) [Example 77b, 6,6-dimethyl-N-(1-(2-(3-oxomorpholino)-1-phenylethyl)-1H-pyrazol-4-yl)-4,5,6,7-tetrahydro-1H-indazole-3-carboxamide], the Ki was determined as 2 nM.
On to `CN(C)CC(c1ccccc1)n1cc(NC(=O)c2n[nH]c3c2CC(C)(C)C3)cn1` (single isomer, unassigned) [Example 96a, N-(1-(2-(dimethylamino)-1-phenylethyl)-1H-pyrazol-4-yl)-5,5-dimethyl-1,4,5,6-tetrahydrocyclopenta[c]pyrazole-3-carboxamide], for which affinity was put at a Ki of 57 nM. Against the preceding compound, the Ki is about 28-fold higher.
To `CNCCC(c1ccccc1)n1cc(NC(=O)c2n[nH]c3c2CCC(C)(C)C3)cn1` (single isomer, unassigned) [Example 39a, 6,6-dimethyl-N-(1-(3-(methylamino)-1-phenylpropyl)-1H-pyrazol-4-yl)-4,5,6,7-tetrahydro-1H-indazole-3-carboxamide] belongs 0.7 nM; to `CC1(C)CCc2c(C(=O)Nc3cnn(C(c4cccc(S(C)(=O)=O)c4)C4CC4)c3)n[nH]c2C1` (single isomer, unassigned) [Example 125a, N-(1-(cyclopropyl(3-(methylsulfonyl)phenyl)methyl)-1H-pyrazol-4-yl)-6,6-dimethyl-4,5,6,7-tetrahydro-1H-indazole-3-carboxamide], 2 nM.
The result for `CC12Cc3[nH]nc(C(=O)Nc4cnn(C(CCS(C)(=O)=O)c5ccccc5)c4)c3CC1C2` (stereo not drawn) [Example 69a, 5a-methyl-N-(1-(3-(methylsulfonyl)-1-phenylpropyl)-1H-pyrazol-4-yl)-1,4,4a,5,5a,6-hexahydrocyclopropa[f]indazole-3-carboxamide] reads 2 nM; that for `CC1(N2CCOCC2)CCc2c(C(=O)Nc3cnn(Cc4ccccc4)c3)n[nH]c2C1` (single isomer, unassigned) [Example 149b, N-(1-benzyl-1H-pyrazol-4-yl)-6-methyl-6-morpholino-4,5,6,7-tetrahydro-1H-indazole-3-carboxamide], more than 400 nM; that for `O=C1CCC2(CCc3c(C(=O)Nc4cnn(Cc5ccccc5)c4)n[nH]c3C2)N1` (single isomer, unassigned) [Example 148b, N-(1-benzyl-1H-pyrazol-4-yl)-5′-oxo-1,4,5,7-tetrahydrospiro[indazole-6,2′-pyrrolidine]-3-carboxamide], more than 400 nM.
